Experiments:
[1] = test system: Mouse NFS-60 cells; assay: Proliferation assay on mouse NFS-60 cells (AlamarBlue); type: cell-based; settings: 72 hours
Protocol: Mouse NFS-60 cells were obtained from American Type Culture Collection (ATCC), VA, and cultured in RPMI-1640 medium supplemented with 10% fetal bovine serum (FBS), 0.05 mM 2-mercapoethanol and 62 ng/ml human macrophage colony stimulating factor (M-CSF). For proliferation assay, mouse NFS-60 cells were washed three times with RPMI-1640 medium and resuspended in RPMI-1640 medium with 10% FBS and 0.05 mM 2-mercapoethanol at a density of 1.5×10^5 cells/ml. In 96-well plates, 100 μl of cell suspension was added into each well, followed by the addition of varied concentrations of bGCSF, BLV1H12 antibody, and the immunoglobulin constructs described herein, Equal volume of PBS buffer was added into the control wells. The plates were incubated at 37° C. in a 5% CO2 incubator for 72 hours. Cells were then treated with AlamarBlue (Invitrogen) ( 1/10 volume of cell suspension) for 4 hours at 37° C. Fluorescence at 595 nm for each well was read to indicate the cell viability.

[2] = test system: Human mPB CD34+ cells; assay: Proliferative activity on human granulocyte progenitors (flow cytometry); type: cell-based; settings: 7 days
Protocol: Human mPB CD34^+ cells were purchased from AllCells. Cells were resuspended in HSC expansion medium (StemSpan SFEM, StemCell Technologies) supplemented with 1× antibiotics and the following recombinant human cytokines thrombopoietin, IL6, Flt3 ligand, and stem cell factor (100 ng/mL, R & D Systems), then plated in 96-well plates (1000 cells per well), with varied concentrations of BLV1H12-bGCSF fusion antibodies. Cells were cultured for 7 days at 37° C. in a 5% CO2 incubator, then analyzed by flow cytometry to measure cell number and expression of CD45ra and CD41. Cells were stained in staining medium (HBSS supplemented with 2% FBS and 2 mM EDTA) at 4° C. for 1 h with PECy7 anti-CD45ra and eFluor 450 anti-CD41 (eBiosciences), then washed with staining medium and analyzed. Multicolor analysis for cell phenotyping was performed on a LSR II flow cytometer (Becton Dickinson). FIGS. 10A-10E and Tables 9-10 show the human granulocyte progenitor cell proliferative activities of the Ab-GCSF fusion antibodies.

[3] = Pharmacokinetics of BLV1H12-bGCSF fusion antibodies in mice; type: in vivo; settings: BALB/c mice, 70 μg injected
Protocol: For PK study in mice, 70 μg of the immunoglobulin constructs described herein were injected into 3 BALB/c mice per group. Blood samples were drawn from time 0 to 14 days with extended intervals and analyzed by ELISA using anti-human IgG Fc antibody with horseradish peroxidase (HRP) labeled (KPL) and anti-6×His antibody with HRP labeled (Clontech). Data were normalized by taking maximal concentration at the first time point (30 min).

[4] = test system: mice neutrophils; assay: Neutrophils counts in mice; type: in vivo; settings: mice blood, 10th day post-injection, neutrophils among white blood cells
Protocol: On the 10th day after injection of BLV1H12-bGCSF fusion antibodies into mice for PK study, blood samples were drawn from the mice and stained using the Diff Quick Staining Kit (Thermo Fisher Scientific, IL). Neutrophils and white blood cells were counted under microscope and the percentages of neutrophils were analyzed. FIGS. 12A-12B and Table 12 show proliferative activities of BLV1H12-bGCSF fusion antibodies on mice neutrophils that are blood stained and counted at the 10th day post-injection.

Ab-bGCSF L0: bovine G-CSF replacing the knob domain of BLV1H12 CDR3H, no linker (n=0); DNA SEQ ID NO: 4
F.I. (AlamarBlue fluorescence at 595 nm, cell viability) ([1]; 0.09876 ng/mL): 1328
F.I. (AlamarBlue fluorescence at 595 nm, cell viability) ([1]; 0.29627 ng/mL): 1436
F.I. (AlamarBlue fluorescence at 595 nm, cell viability) ([1]; 0.88881 ng/mL): 1734.765
F.I. (AlamarBlue fluorescence at 595 nm, cell viability) ([1]; 2.66642 ng/mL): 2189
F.I. (AlamarBlue fluorescence at 595 nm, cell viability) ([1]; 7.99927 ng/mL): 2680
F.I. (AlamarBlue fluorescence at 595 nm, cell viability) ([1]; 23.9978 ng/mL): 2899
F.I. (AlamarBlue fluorescence at 595 nm, cell viability) ([1]; 71.9934 ng/mL): 2921
F.I. (AlamarBlue fluorescence at 595 nm, cell viability) ([1]; 215.9802 ng/mL): 3416
Number of CD45RA− CD41− ([2]; 0.14225 ng/mL): 2601
Number of CD45RA− CD41− ([2]; 0.42676 ng/mL): 2253
Number of CD45RA− CD41− ([2]; 3.84088 ng/mL): 4399
Number of CD45RA− CD41− ([2]; 11.52263 ng/mL): 7262
Number of CD45RA− CD41− ([2]; 34.5679 ng/mL): 9902
Number of CD45RA− CD41− ([2]; 103.7037 ng/mL): 11500
Number of CD45RA− CD41− ([2]; 311.11111 ng/mL): 11500
Number of CD45RA− CD41− ([2]; 933.33333 ng/mL): 11900
Number of CD45RA− CD41− ([2]; 2800 ng/mL): 12100
Percentage (normalized to maximal concentration at the first time point, 30 min) ([3]; day 0.021): 100.00%
Percentage (normalized to maximal concentration at the first time point, 30 min) ([3]; day 0.042): 91.12%
Percentage (normalized to maximal concentration at the first time point, 30 min) ([3]; day 0.083): 91.24%
Percentage (normalized to maximal concentration at the first time point, 30 min) ([3]; day 0.125): 91.56%
Percentage (normalized to maximal concentration at the first time point, 30 min) ([3]; day 0.250): 61.22%
Percentage (normalized to maximal concentration at the first time point, 30 min) ([3]; day 1.000): 44.22%
Percentage (normalized to maximal concentration at the first time point, 30 min) ([3]; day 2.000): 36.36%
Percentage (normalized to maximal concentration at the first time point, 30 min) ([3]; day 3.000): 27.38%
Percentage (normalized to maximal concentration at the first time point, 30 min) ([3]; day 8.000): 11.53%
Percentage (normalized to maximal concentration at the first time point, 30 min) ([3]; day 10.000): 12.44%
Percentage (normalized to maximal concentration at the first time point, 30 min) ([3]; day 14.000): 14.35%
Percentage of Neutrophil [4]: 25.05

Ab-bGCSF L1: bovine G-CSF replacing the knob domain of BLV1H12 CDR3H with GGGGS linkers on both ends; DNA SEQ ID NO: 5
F.I. (AlamarBlue fluorescence at 595 nm, cell viability) ([1]; 0.09808 ng/mL): 1412.387
F.I. (AlamarBlue fluorescence at 595 nm, cell viability) ([1]; 0.29424 ng/mL): 1654.776
F.I. (AlamarBlue fluorescence at 595 nm, cell viability) ([1]; 0.88272 ng/mL): 2082.718
F.I. (AlamarBlue fluorescence at 595 nm, cell viability) ([1]; 2.64816 ng/mL): 2550.674
F.I. (AlamarBlue fluorescence at 595 nm, cell viability) ([1]; 7.94449 ng/mL): 2997.807
F.I. (AlamarBlue fluorescence at 595 nm, cell viability) ([1]; 23.83346 ng/mL): 3277.812
F.I. (AlamarBlue fluorescence at 595 nm, cell viability) ([1]; 71.50039 ng/mL): 3308.383
F.I. (AlamarBlue fluorescence at 595 nm, cell viability) ([1]; 214.50117 ng/mL): 3868.075
Number of CD45RA− CD41− ([2]; 0.30483 ng/mL): 4070
Number of CD45RA− CD41− ([2]; 0.91449 ng/mL): 3601
Number of CD45RA− CD41− ([2]; 2.74348 ng/mL): 4303
Number of CD45RA− CD41− ([2]; 8.23045 ng/mL): 6404
Number of CD45RA− CD41− ([2]; 24.69136 ng/mL): 9122
Number of CD45RA− CD41− ([2]; 74.07407 ng/mL): 11200
Number of CD45RA− CD41− ([2]; 222.22222 ng/mL): 11000
Number of CD45RA− CD41− ([2]; 666.66667 ng/mL): 11400
Number of CD45RA− CD41− ([2]; 2000 ng/mL): 11400
Number of CD45RA− CD41− ([2]; 6000 ng/mL): 13200
Percentage (normalized to maximal concentration at the first time point, 30 min) ([3]; day 0.021): 100.00%
Percentage (normalized to maximal concentration at the first time point, 30 min) ([3]; day 0.042): 102.12%
Percentage (normalized to maximal concentration at the first time point, 30 min) ([3]; day 0.083): 104.03%
Percentage (normalized to maximal concentration at the first time point, 30 min) ([3]; day 0.125): 101.71%
Percentage (normalized to maximal concentration at the first time point, 30 min) ([3]; day 0.250): 93.90%
Percentage (normalized to maximal concentration at the first time point, 30 min) ([3]; day 1.000): 59.26%
Percentage (normalized to maximal concentration at the first time point, 30 min) ([3]; day 2.000): 56.66%
Percentage (normalized to maximal concentration at the first time point, 30 min) ([3]; day 3.000): 39.09%
Percentage (normalized to maximal concentration at the first time point, 30 min) ([3]; day 8.000): 22.21%
Percentage (normalized to maximal concentration at the first time point, 30 min) ([3]; day 10.000): 21.15%
Percentage (normalized to maximal concentration at the first time point, 30 min) ([3]; day 14.000): 21.41%
Percentage of Neutrophil [4]: 25.32

Source: patent US20140050720A1, “ULTRALONG COMPLEMENTARITY DETERMINING REGIONS AND USES THEREOF” (THE SCRIPPS RESEARCH INSTITUTE, priority 2012, published 2014)
